According to ChEMBL document CHEMBL2439961, “Synthesis and evaluation of the cell cycle arrest and CT DNA interaction properties of 4β-amino-4'-O-demethyl-4-deoxypodophyllotoxins” (Bioorg Med Chem, 2013):
The source made the active and inactive calls. No cut-off for these calls is given here.

Columns and labels:
HepG2 = assay: Cytotoxicity against human HepG2 cells after 48 hrs by MTT assay; assay type: functional, cell-based; conditions: HepG2, 48 h
A549 = assay: Cytotoxicity against human A549 cells after 48 hrs by MTT assay; assay type: functional, cell-based; conditions: A549, 48 h
HeLa [1] = assay: Cytotoxicity against human HeLa cells after 48 hrs by MTT assay; assay type: functional, cell-based
HCT-8 = assay: Cytotoxicity against human HCT8 cells after 48 hrs by MTT assay; assay type: functional, cell-based; conditions: HCT-8, 48 h
HeLa [2] = assay: Cell cycle arrest in human HeLa cells assessed as accumulation at G2/M phase after 24 hrs using propidium iodide staining by FACS analysis; assay type: functional, cell-based
HeLa [3] = assay: Induction of apoptosis in human HeLa cells assessed as late apoptotic cells at 0.5 uM after 24 hrs using annexin V-FITC/PI and Hoechst 33258 staining by FACS analysis (reference value: 2.39%); assay type: functional
HeLa [4] = assay: Cell cycle arrest in human HeLa cells assessed as accumulation at S phase at 0.5 uM after 24 hrs using propidium iodide staining by FACS analysis (reference value: 27.1%); assay type: functional
HeLa [5] = assay: Induction of apoptosis in human HeLa cells assessed as cell shrinkage, nuclear fragmentation and condensation dispersed throughout cytoplasm at 0.5 uM after 48 hrs by immunofluorescence analysis; assay type: functional, cell-based
HeLa [6] = assay: Cell cycle arrest in human HeLa cells assessed as accumulation at sub-G1 phase at 0.5 uM after 24 hrs using propidium iodide staining by FACS analysis (reference value: 0%); assay type: functional
HeLa [7] = assay: Induction of microtubule depolymerization in human HeLa cells assessed as short and dense microtubule networks at 0.5 uM using DAPI staining by immunofluorescence analysis; assay type: cell-based; conditions: TDE = time-dependent effect
HeLa [8] = assay: Cell cycle arrest in human HeLa cells assessed as accumulation at G1 phase at 0.5 uM after 24 hrs using propidium iodide staining by FACS analysis (reference value: 48.5%); assay type: functional
HeLa [9] = assay: Induction of microtubule depolymerization in human HeLa cells assessed as short and dense microtubule networks at 0.5 uM after 48 hrs using DAPI staining by immunofluorescence analysis; assay type: cell-based
HeLa [10] = assay: Cell cycle arrest in human HeLa cells assessed as accumulation at G2/M phase at 0.5 uM after 24 hrs using propidium iodide staining by FACS analysis (reference value: 24.4%); assay type: functional
DNA [11] = assay: Binding affinity to calf thymus DNA at 0.5 mM after 5 mins by fluorescence analysis; assay type: nucleic-acid assay; conditions: Bos taurus
HeLa [12] = assay: Cell cycle arrest in human HeLa cells assessed as accumulation at G2/M phase at 1 uM after 24 hrs using propidium iodide staining by FACS analysis (reference value: 24.4%); assay type: functional
HeLa [13] = assay: Induction of morphological changes in human HeLa cells after 48 hrs by immunofluorescence analysis; assay type: functional, cell-based
HeLa [14] = assay: Induction of apoptosis in human HeLa cells assessed as late apoptotic cells at 0.25 uM after 24 hrs using annexin V-FITC/PI and Hoechst 33258 staining by FACS analysis (reference value: 2.39%); assay type: functional
DNA [15] = assay: Binding affinity to calf thymus DNA assessed as reduction in intensity of positive band at 5 to 40 ug/ml after 24 hrs by circular dichroism analysis; assay type: nucleic-acid assay; conditions: Bos taurus
HeLa [16] = assay: Cell cycle arrest in human HeLa cells assessed as accumulation at S phase at 1 uM after 24 hrs using propidium iodide staining by FACS analysis (reference value: 27.1%); assay type: functional
HeLa [17] = assay: Induction of apoptosis in human HeLa cells assessed as early apoptotic cells at 0.25 uM after 24 hrs using annexin V-FITC/PI and Hoechst 33258 staining by FACS analysis (reference value: 2.34%); assay type: functional
HeLa [18] = assay: Increase of p53 protein level in human HeLa cells Western blotting analysis; assay type: functional, cell-based
HeLa [19] = assay: Induction of apoptosis in human HeLa cells assessed as early apoptotic cells at 0.5 uM after 24 hrs using annexin V-FITC/PI and Hoechst 33258 staining by FACS analysis (reference value: 2.34%); assay type: functional
HeLa [20] = assay: Cell cycle arrest in human HeLa cells assessed as accumulation at G1 phase at 1 uM after 24 hrs using propidium iodide staining by FACS analysis (reference value: 48.5%); assay type: functional
HeLa [21] = assay: Increase of CDC2 protein level in human HeLa cells Western blotting analysis; assay type: functional, cell-based
HeLa [22] = assay: Cell cycle arrest in human HeLa cells assessed as accumulation at sub-G1 phase at 1 uM after 24 hrs using propidium iodide staining by FACS analysis (reference value: 0%); assay type: functional
HeLa [23] = assay: Increase of caspase-3 protein level in human HeLa cells Western blotting analysis; assay type: functional, cell-based
HeLa [24] = assay: Increase of cyclin-B1 protein level in human HeLa cells Western blotting analysis; assay type: functional, cell-based
HeLa [25] = assay: Induction of morphological changes in human HeLa cells by immunofluorescence analysis; assay type: functional, cell-based; conditions: TDE = time-dependent effect
HeLa [26] = assay: Induction of apoptosis in human HeLa cells assessed as cell shrinkage, nuclear fragmentation and condensation dispersed throughout cytoplasm at 0.5 uM by immunofluorescence analysis; assay type: functional, cell-based; conditions: TDE = time-dependent effect

## CCN1CCN([C@@H]2c3cc4c(cc3[C@@H](c3cc(OC)c(O)c(OC)c3)[C@H]3C(=O)OC[C@@H]32)OCO4)CC1
HepG2
  IC50: 5.41 µM
A549
  IC50: 28.8 µM
HeLa [1]
  IC50: 3.81 µM
HCT-8
  IC50: 19.8 µM

## COc1cc([C@@H]2c3cc4c(cc3[C@@H](Nc3ccc(S(=O)(=O)N5CCN(c6ccc(F)cc6)CC5)cc3)[C@H]3COC(=O)[C@H]23)OCO4)cc(OC)c1O
HepG2
  IC50: 54.4 µM
A549
  IC50: 57.3 µM
HeLa [1]
  IC50: 21.9 µM
HCT-8
  IC50: 30.4 µM

## COc1cc([C@@H]2c3cc4c(cc3[C@@H](N3CCN(c5ccc(F)cc5)CC3)[C@H]3COC(=O)[C@H]23)OCO4)cc(OC)c1O
HepG2
  IC50: 20.6 µM
A549
  IC50: 27.3 µM
HeLa [1]
  IC50: 13.6 µM
HCT-8
  IC50: 14.3 µM

## COc1cc([C@@H]2c3cc4c(cc3[C@@H](N3CCN(C5CCCC5)CC3)[C@H]3COC(=O)[C@H]23)OCO4)cc(OC)c1O
HepG2
  IC50: 8.42 µM
A549
  IC50: 14.5 µM
HeLa [1]
  IC50: 11.6 µM
HCT-8
  IC50: 10.2 µM

## COc1cc([C@@H]2c3cc4c(cc3[C@@H](N3CCN(C)CC3)[C@H]3COC(=O)[C@H]23)OCO4)cc(OC)c1O
HepG2
  IC50: 2.72 µM
A549
  IC50: 26.4 µM
HeLa [1]
  IC50: 3.4 µM
HCT-8
  IC50: 12.4 µM

## COc1cc([C@@H]2c3cc4c(cc3[C@@H](NCCNc3ccc([N+](=O)[O-])cc3)[C@H]3COC(=O)[C@H]23)OCO4)cc(OC)c1O
HepG2
  IC50: 32.3 µM
A549
  IC50: 25.8 µM
HeLa [1]
  IC50: 14.8 µM
HCT-8
  IC50: 14.8 µM

## COc1cc([C@@H]2c3cc4c(cc3[C@@H](NCCCNc3ccc([N+](=O)[O-])cc3)[C@H]3COC(=O)[C@H]23)OCO4)cc(OC)c1O
HepG2
  IC50: 22.4 µM
A549
  IC50: 43.2 µM
HeLa [1]
  IC50: 10.5 µM
HCT-8
  IC50: 19.7 µM

## COc1cc([C@@H]2c3cc4c(cc3[C@@H](Nc3ccc(S(=O)(=O)NC5CCCC5)cc3)[C@H]3COC(=O)[C@H]23)OCO4)cc(OC)c1O
HepG2
  IC50: 47.6 µM
A549
  IC50: 52.4 µM
HeLa [1]
  IC50: 35.2 µM
HCT-8
  IC50: 38.7 µM

## COc1cc([C@@H]2c3cc4c(cc3[C@@H](O[C@@H]3O[C@@H]5CO[C@@H](C)O[C@H]5[C@H](O)[C@H]3O)[C@H]3COC(=O)[C@H]23)OCO4)cc(OC)c1O [ETOPOSIDE]
HepG2
  IC50: 11.5 µM
HeLa [1]
  IC50: 4.73 µM
HCT-8
  IC50: 6.54 µM

## COc1cc([C@@H]2c3cc4c(cc3[C@@H](Nc3ccc(S(=O)(=O)N5CCN(c6ccc([N+](=O)[O-])cc6)CC5)cc3)[C@H]3COC(=O)[C@H]23)OCO4)cc(OC)c1O
HepG2
  IC50: 38.6 µM
A549
  IC50: 42.3 µM
HeLa [1]
  IC50: 27.8 µM
HCT-8
  IC50: 32.5 µM

## COc1cc([C@@H]2c3cc4c(cc3[C@@H](N3CCN(c5ccc([N+](=O)[O-])cc5)CC3)[C@H]3COC(=O)[C@H]23)OCO4)cc(OC)c1O
HeLa [2]
  Activity: Dose-dependent effect
HeLa [3]
  Activity: 4.76%
HepG2
  IC50: 1.43 µM
HeLa [4]
  Activity: 58.7%
HeLa [5]
  Activity: Active
HeLa [6]
  Activity: 1%
A549
  IC50: 0.16 µM
HeLa [7]
  Activity: tde
HeLa [1]
  IC50: 0.07 µM
HeLa [8]
  Activity: 5.9%
HeLa [9]
  Activity: Active
HeLa [10]
  Activity: 35.4%
DNA [11]
  Activity: Active
HeLa [12]
  Activity: 71.4%
HeLa [13]
  Activity: Active
HeLa [14]
  Activity: 3.54%
DNA [15]
  Activity: Active
HeLa [16]
  Activity: 28.6%
HeLa [17]
  Activity: 3.99%
HeLa [18]
  Activity: Dose-dependent effect
HeLa [19]
  Activity: 4.88%
HeLa [20]
  Activity: 0.1%
HeLa [21]
  Activity: Dose-dependent effect
HeLa [22]
  Activity: 4.9%
HeLa [23]
  Activity: Dose-dependent effect
HCT-8
  IC50: 2.12 µM
HeLa [24]
  Activity: Dose-dependent effect
HeLa [25]
  Activity: tde
HeLa [26]
  Activity: tde
